In PubChem BioAssay (NCI):
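Each compound was tested at five concentrations against cells in 96-well plates for 48 hours. GI50 is the concentration that inhibits growth by half. TGI denotes the concentration required for complete inhibition of growth.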

Legend:
Assay in all cases: growth of human tumour cells (NCI), 48 h
786-0 renal = test system: 786-0 renal
A498 renal = test system: A498 renal
A549 NSCLC = test system: A549 NSCLC
ACHN renal = test system: ACHN renal
BT-549 breast = test system: BT-549 breast
CAKI-1 renal = test system: CAKI-1 renal
CCRF-CEM leukemia = test system: CCRF-CEM leukemia
COLO 205 colon = test system: COLO 205 colon
DU-145 prostate = test system: DU-145 prostate
EKVX NSCLC = test system: EKVX NSCLC
HCC-2998 colon = test system: HCC-2998 colon
HCT-116 colon = test system: HCT-116 colon
HCT-15 colon = test system: HCT-15 colon
HOP-62 NSCLC = test system: HOP-62 NSCLC
HOP-92 NSCLC = test system: HOP-92 NSCLC
HS 578T breast = test system: HS 578T breast
HT29 colon = test system: HT29 colon
IGROV1 ovarian = test system: IGROV1 ovarian
K-562 leukemia = test system: K-562 leukemia
KM12 colon = test system: KM12 colon
LOX IMVI melanoma = test system: LOX IMVI melanoma
M14 melanoma = test system: M14 melanoma
MALME-3M melanoma = test system: MALME-3M melanoma
MCF7 breast = test system: MCF7 breast
MDA-MB-231 breast = test system: MDA-MB-231 breast
MDA-MB-435 = test system: MDA-MB-435
MDA-MB-468 breast = test system: MDA-MB-468 breast
MOLT-4 leukemia = test system: MOLT-4 leukemia
NCI-H226 lung = test system: NCI-H226 lung
NCI-H23 lung = test system: NCI-H23 lung
NCI-H460 lung = test system: NCI-H460 lung
NCI-H522 lung = test system: NCI-H522 lung
NCI/ADR-RES ovarian = test system: NCI/ADR-RES ovarian
OVCAR-3 ovarian = test system: OVCAR-3 ovarian
OVCAR-4 ovarian = test system: OVCAR-4 ovarian
OVCAR-5 ovarian = test system: OVCAR-5 ovarian
OVCAR-8 ovarian = test system: OVCAR-8 ovarian
PC-3 prostate = test system: PC-3 prostate
RPMI-8226 leukemia = test system: RPMI-8226 leukemia
RXF 393 renal = test system: RXF 393 renal
SF-268 CNS = test system: SF-268 CNS
SF-295 CNS = test system: SF-295 CNS
SF-539 CNS = test system: SF-539 CNS
SK-MEL-2 melanoma = test system: SK-MEL-2 melanoma
SK-MEL-28 melanoma = test system: SK-MEL-28 melanoma
SK-MEL-5 melanoma = test system: SK-MEL-5 melanoma
SK-OV-3 ovarian = test system: SK-OV-3 ovarian
SN12C renal = test system: SN12C renal
SNB-19 CNS = test system: SNB-19 CNS
SNB-75 CNS = test system: SNB-75 CNS
SR leukemia = test system: SR leukemia
SW-620 colon = test system: SW-620 colon
T-47D breast = test system: T-47D breast
TK-10 renal = test system: TK-10 renal
U251 CNS = test system: U251 CNS
UACC-257 melanoma = test system: UACC-257 melanoma
UACC-62 melanoma = test system: UACC-62 melanoma
UO-31 renal = test system: UO-31 renal

## Fc1ccc(F)c(CNc2nc(SCCN3CCOCC3)nc3c2cnn3CC(Cl)c2ccc(Br)cc2)c1 (stereo unspecified)
786-0 renal
  GI50: 2.62 µM
  TGI: 17.3 µM
A498 renal
  GI50: 4.2 µM
  TGI: > 100 µM
A549 NSCLC
  GI50: 3.09 µM
  TGI: > 100 µM
ACHN renal
  GI50: 3.65 µM
  TGI: > 100 µM
BT-549 breast
  GI50: 2.38 µM
  TGI: 5.96 µM
CAKI-1 renal
  GI50: 3.66 µM
  TGI: > 100 µM
CCRF-CEM leukemia
  GI50: 2.81 µM
  TGI: > 100 µM
COLO 205 colon
  GI50: 2.13 µM
  TGI: 4.98 µM
DU-145 prostate
  GI50: 6.12 µM
  TGI: > 100 µM
EKVX NSCLC
  GI50: 3.9 µM
  TGI: > 100 µM
HCC-2998 colon
  GI50: 4.13 µM
  TGI: > 100 µM
HCT-116 colon
  GI50: 2.61 µM
  TGI: > 100 µM
HCT-15 colon
  GI50: 1.76 µM
  TGI: 6.15 µM
HOP-62 NSCLC
  GI50: 6.31 µM
  TGI: > 100 µM
HOP-92 NSCLC
  GI50: 3.03 µM
  TGI: 23.9 µM
HS 578T breast
  GI50: 2.6 µM
  TGI: > 100 µM
HT29 colon
  GI50: 1.14 µM
  TGI: 2.68 µM
IGROV1 ovarian
  GI50: 5.03 µM
  TGI: > 100 µM
K-562 leukemia
  GI50: 1.77 µM
  TGI: > 100 µM
KM12 colon
  GI50: 3.72 µM
  TGI: > 100 µM
LOX IMVI melanoma
  GI50: 2.5 µM
  TGI: 7.65 µM
M14 melanoma
  GI50: 3.21 µM
  TGI: > 100 µM
MALME-3M melanoma
  GI50: 1.89 µM
  TGI: 5.15 µM
MCF7 breast
  GI50: 2.5 µM
  TGI: 8.54 µM
MDA-MB-231 breast
  GI50: 3.11 µM
  TGI: 18.6 µM
MDA-MB-435
  GI50: 2.91 µM
  TGI: 10.4 µM
MDA-MB-468 breast
  GI50: 1.96 µM
  TGI: 4.88 µM
MOLT-4 leukemia
  GI50: 2.58 µM
  TGI: > 100 µM
NCI-H226 lung
  GI50: 2.63 µM
  TGI: 8.3 µM
NCI-H23 lung
  GI50: 4.91 µM
  TGI: > 100 µM
NCI-H460 lung
  GI50: 3.52 µM
  TGI: > 100 µM
NCI-H522 lung
  GI50: 3.51 µM
  TGI: 91.3 µM
NCI/ADR-RES ovarian
  GI50: 3.13 µM
  TGI: > 100 µM
OVCAR-3 ovarian
  GI50: 5.71 µM
  TGI: > 100 µM
OVCAR-4 ovarian
  GI50: 3.22 µM
  TGI: > 100 µM
OVCAR-5 ovarian
  GI50: 4.59 µM
  TGI: > 100 µM
OVCAR-8 ovarian
  GI50: 3.77 µM
  TGI: > 100 µM
PC-3 prostate
  GI50: 2.63 µM
  TGI: 62.6 µM
RPMI-8226 leukemia
  GI50: 2.66 µM
  TGI: > 100 µM
RXF 393 renal
  GI50: 1.41 µM
  TGI: 4.83 µM
SF-268 CNS
  GI50: 4.27 µM
  TGI: > 100 µM
SF-295 CNS
  GI50: 3.34 µM
  TGI: > 100 µM
SF-539 CNS
  GI50: 3.57 µM
  TGI: > 100 µM
SK-MEL-2 melanoma
  GI50: 2.04 µM
  TGI: 5.04 µM
SK-MEL-28 melanoma
  GI50: 2.84 µM
  TGI: > 100 µM
SK-MEL-5 melanoma
  GI50: 1.62 µM
  TGI: 3.01 µM
SK-OV-3 ovarian
  GI50: 8.7 µM
  TGI: > 100 µM
SN12C renal
  GI50: 3.22 µM
  TGI: > 100 µM
SNB-19 CNS
  GI50: 5.34 µM
  TGI: > 100 µM
SNB-75 CNS
  GI50: 2.28 µM
  TGI: > 100 µM
SR leukemia
  GI50: 3.63 µM
  TGI: > 100 µM
SW-620 colon
  GI50: 2.78 µM
  TGI: 13.8 µM
T-47D breast
  GI50: 2.81 µM
  TGI: 38.1 µM
TK-10 renal
  GI50: 5.24 µM
  TGI: > 100 µM
U251 CNS
  GI50: 3.77 µM
  TGI: > 100 µM
UACC-257 melanoma
  GI50: 3.25 µM
  TGI: 65 µM
UACC-62 melanoma
  GI50: 1.75 µM
  TGI: 3.73 µM
UO-31 renal
  GI50: 2.87 µM
  TGI: > 100 µM
